Converted amounts (≈) assume the structure as drawn.
How the values were obtained:
[1] = test system: P. falciparum C235; assay: Malaria SYBR Green Fluorescence Assay, C235 strain; type: cell-based, Plasmodium falciparum
[2] = target: hERG potassium ion channel (Homo sapiens, UniProt Q12809); assay: hERG patch clamp assay (% inhibition at 10 μM); conditions: for hERG (% inhibition): 10 μM
[3] = test system: P. falciparum W2; assay: Malaria SYBR Green Fluorescence Assay, W2 strain; type: cell-based, Plasmodium falciparum
[4] = test system: P. falciparum D6; assay: Malaria SYBR Green Fluorescence Assay, D6 strain; type: cell-based, Plasmodium falciparum
[5] = test system: P. berghei; assay: Thompson Test, in vivo mouse malaria assay; design: species or system mice (ICR strain)
[6] = % inhibition at 10 μM, patch clamp
[7] = Plasmodium falciparum, SYBR Green Assay

Chain of hERG potassium ion channel (Q12809 whole entry): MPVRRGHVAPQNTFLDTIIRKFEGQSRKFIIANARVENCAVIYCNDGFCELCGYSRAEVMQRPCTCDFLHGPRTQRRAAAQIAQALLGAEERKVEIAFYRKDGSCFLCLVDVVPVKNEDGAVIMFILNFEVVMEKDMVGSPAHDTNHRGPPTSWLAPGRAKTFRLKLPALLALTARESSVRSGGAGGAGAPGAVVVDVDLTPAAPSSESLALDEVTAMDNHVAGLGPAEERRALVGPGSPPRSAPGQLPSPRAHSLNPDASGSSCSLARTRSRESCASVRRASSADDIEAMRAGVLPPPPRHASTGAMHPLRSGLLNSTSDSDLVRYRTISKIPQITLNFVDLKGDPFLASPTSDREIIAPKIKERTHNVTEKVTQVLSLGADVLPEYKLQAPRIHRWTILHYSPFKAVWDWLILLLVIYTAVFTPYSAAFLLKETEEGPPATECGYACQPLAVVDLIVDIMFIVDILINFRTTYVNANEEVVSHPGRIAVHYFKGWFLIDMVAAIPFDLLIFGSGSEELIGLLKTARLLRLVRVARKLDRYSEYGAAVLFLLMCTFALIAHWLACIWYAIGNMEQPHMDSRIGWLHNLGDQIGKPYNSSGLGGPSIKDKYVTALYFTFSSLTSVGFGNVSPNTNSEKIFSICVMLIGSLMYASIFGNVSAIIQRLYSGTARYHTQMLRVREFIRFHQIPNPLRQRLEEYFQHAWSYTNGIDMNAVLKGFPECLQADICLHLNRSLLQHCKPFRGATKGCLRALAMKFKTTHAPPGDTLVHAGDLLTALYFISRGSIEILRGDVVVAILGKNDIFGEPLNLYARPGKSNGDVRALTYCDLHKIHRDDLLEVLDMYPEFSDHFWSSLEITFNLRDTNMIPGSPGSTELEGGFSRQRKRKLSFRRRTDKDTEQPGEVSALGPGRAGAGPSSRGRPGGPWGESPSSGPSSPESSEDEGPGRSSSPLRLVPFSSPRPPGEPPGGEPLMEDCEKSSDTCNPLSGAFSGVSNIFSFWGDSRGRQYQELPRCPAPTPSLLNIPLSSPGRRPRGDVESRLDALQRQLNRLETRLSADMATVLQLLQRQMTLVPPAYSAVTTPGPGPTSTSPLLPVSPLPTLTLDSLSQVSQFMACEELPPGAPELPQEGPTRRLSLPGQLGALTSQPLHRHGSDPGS

Molecule	C235 (SYBR Green Assay IC50) [1]	hERG (% inhibition) [2]	W2 (SYBR Green Assay IC50) [3]	D6 (SYBR Green Assay IC50) [4]	C235 ([1]; SYBR Green Assay)	W2 ([3]; SYBR Green Assay)	D6 ([4]; SYBR Green Assay)	other results
CCC(N)(CC)CNc1nc(-c2ccc(-c3ccccc3)cc2)nc(C(Cl)(Cl)Cl)n1 [Cmpd 364]	0.006 µg/mL	25%	0.004 µg/mL	0.003 µg/mL				
CCN(CC)CCNc1nc(Nc2ccc(OC(F)(F)F)cc2)nc(C(Cl)(Cl)Cl)n1 [Cmpd 374]	0.005 µg/mL	109%	0.005 µg/mL	0.002 µg/mL				
CCC(N)(CC)CNc1nc(-c2ccc3ccccc3c2)nc(C(Cl)(Cl)Cl)n1 [Cmpd 377]	0.008 µg/mL	25%	0.006 µg/mL	0.002 µg/mL				
Fc1ccc(-c2nc(NCCCN3CCCC3)nc(C(Cl)(Cl)Cl)n2)cc1 [Cmpd 381]	0.014 µg/mL	106%	0.009 µg/mL	0.005 µg/mL				
CN1CCCC1CCNc1nc(-c2ccc(F)cc2)nc(C(Cl)(Cl)Cl)n1 (centres unmarked) [Cmpd 382]	0.036 µg/mL	105%	0.02 µg/mL	0.017 µg/mL				
CCN1CCCC(Nc2nc(-c3ccc(F)cc3)nc(C(Cl)(Cl)Cl)n2)C1 (centres unmarked) [Cmpd 387]	0.013 µg/mL	108%	0.007 µg/mL	0.004 µg/mL				
Clc1ccc(-c2nc(NCCCCCN3CCCC3)nc(C(Cl)(Cl)Cl)n2)cc1 [Cmpd 561]	0.03869 µg/mL	63%	0.02784 µg/mL	0.03967 µg/mL				
ClC(Cl)(Cl)c1ccc(-c2nc(NCCN3CCCC3)nc(C(Cl)(Cl)Cl)n2)cc1 [Compound 57]					22 ng/mL	6 ng/mL	10 ng/mL	hERG [2, 6]: 25%; In vivo Results Thompson Assay (n/N Cures or Suppressive) ([5]; (80 × 3): 80 mg/kg for 3 days): Suppressive; In vivo Results Thompson Assay (n/N Cures or Suppressive) ([5]; (160 × 3): 160 mg/kg for 3 days): 5/5
CN1CCN(c2nc(-c3ccc([S+](C)[O-])cc3)nc(C(Cl)(Cl)Cl)n2)CC1 (centres unmarked) [Compound 72]					27 ng/mL	33 ng/mL	33 ng/mL	hERG [2, 6]: 41%; In vivo Results Thompson Assay (n/N Cures or Suppressive) ([5]; (80 × 3): 80 mg/kg for 3 days): (80 × 3) Suppressive
CCN1CCCC(Nc2nc(-c3ccc(C(C)(C)C)cc3)nc(C(Cl)(Cl)Cl)n2)C1 (centres unmarked) [Compound 79]					36 ng/mL	25 ng/mL	26 ng/mL	hERG [2, 6]: 51%; In vivo Results Thompson Assay (n/N Cures or Suppressive) ([5]; (80 × 3): 80 mg/kg for 3 days): (80 × 3) Suppressive
ClC(Cl)(Cl)c1nc(Nc2ccncc2)nc(-c2ccc3ccccc3c2)n1 [Compound 235]					10 ng/mL	8 ng/mL	14 ng/mL	In vivo Results Thompson Assay (n/N Cures or Suppressive) ([5]; (80 × 3): 80 mg/kg for 3 days): (80 × 3) Suppressive
NC1(CNc2nc(-c3ccccc3)nc(C(Cl)(Cl)Cl)n2)CCOCC1 [Compound 313]					14 ng/mL	2 ng/mL	7 ng/mL	In vivo Results Thompson Assay (n/N Cures or Suppressive) ([5]; (80 × 3): 80 mg/kg for 3 days): (80 × 3) 1/5 Cures
CC1(C)CC(Nc2nc(-c3ccccc3)nc(C(Cl)(Cl)Cl)n2)CC(C)(C)N1 [Compound 320]					20 ng/mL	2 ng/mL	11 ng/mL	In vivo Results Thompson Assay (n/N Cures or Suppressive) ([5]; (40 × 3): 40 mg/kg for 3 days): 1/5; In vivo Results Thompson Assay (n/N Cures or Suppressive) ([5]; (80 × 3): 80 mg/kg for 3 days): 4/4
CC(C)CN1CCC(Nc2nc(-c3ccc(C(C)(C)C)cc3)nc(C(Cl)(Cl)Cl)n2)CC1 [Compound 694, CC(C)CN1CCC(CC1)NC1═NC(═NC(═N1)C(Cl)(Cl)Cl)C1═CC═C(C═C1)C(C)(C)C]					37 ng/mL	23 ng/mL	24 ng/mL	In vivo Results Thompson Assay (n/N Cures or Suppressive) ([5]; (80 × 3): 80 mg/kg for 3 days): (80 × 3) Suppressive
CC(C)(C)OC(=O)N1CC2CC1CN2c1nc(-c2ccc(S(C)(=O)=O)cc2)nc(C(Cl)(Cl)Cl)n1 (centres unmarked) [Compound 715, CC(C)(C)OC(═O)N1CC2CC1CN2c3nc(nc(n3)C(Cl)(Cl)Cl)c4ccc(cc4)S(═O)(═O)C]					185 ng/mL	63 ng/mL	126 ng/mL	hERG ([2]; hERG activity as % inhibition): 19%
CC(CNc1nc(-c2ccc(Cl)c(Cl)c2)nc(C(Cl)(Cl)Cl)n1)N(C)C (centres unmarked) [Example 1, N^1-(4-(3,4-dichlorophenyl)-6-(trichloromethyl)-1,3,5-triazin-2-yl)-N^2,N^2-dimethylpropane-1,2-diamine]								IC50 [1, 7]: 0.0367 µg/mL (≈ 0.0828 µM); hERG ([2]; hERG activity as % inhibition): 95%; IC50 [3, 7]: 0.0294 µg/mL (≈ 0.0663 µM); IC50 [4, 7]: 0.0416 µg/mL (≈ 0.0937 µM)
CC(C)(C)c1ccc(cc1)c2nc(Nc3ccncc3)nc(n2)C(Cl)(Cl)Cl [Compound 739]					25 ng/mL	24 ng/mL	23 ng/mL	hERG ([2]; hERG activity as % inhibition): 26%
CC(CN(C)C)Nc1nc(Nc2cc(Cl)cc(Cl)c2)nc(n1)C(Cl)(Cl)Cl [Compound 639]	0.009 µg/mL	25%	0.007 µg/mL	0.013 µg/mL				
CC(CN(C)C)Nc1nc(Nc2ccc(Cl)c(Cl)c2)nc(n1)C(Cl)(Cl)Cl [Compound 640]	0.01 µg/mL	23%	0.008 µg/mL	0.008 µg/mL				
CCN1CCC(CC1)C(C)Nc2nc(Nc3cc(Cl)cc(Cl)c3)nc(n2)C(Cl)(Cl)Cl [Compound 645]	0.05886 µg/mL	75%	0.0375 µg/mL	0.07911 µg/mL				
CCN(CC)CC(C)Nc1nc(Nc2cc(Cl)cc(Cl)c2)nc(n1)C(Cl)(Cl)Cl [Compound 644]	0.014 µg/mL	100%	0.009 µg/mL	0.131 µg/mL				
CCN(CC)CC(C)Nc1nc(Nc2ccc(Cl)c(Cl)c2)nc(n1)C(Cl)(Cl)Cl [Compound 642]	0.013 µg/mL	76%	0.003 µg/mL	0.005 µg/mL				
CN1CCN(CC1)c2ccc(Nc3nc(NCCN4CCCC4)nc(n3)C(Cl)(Cl)Cl)cc2 [Compound 733]					87 ng/mL	36 ng/mL	117 ng/mL	hERG ([2]; hERG activity as % inhibition): 55%
CN(C)CCCNc1nc(Nc2ccc(Cl)c(Cl)c2)nc(n1)C(Cl)(Cl)Cl [Compound 637]	0.02 µg/mL	103%	0.013 µg/mL	0.017 µg/mL				
COc1ccc(cc1)c2nc(nc(n2)C(Cl)(Cl)Cl)N3CC4CC3CN4 [Compound 718]					139.2 ng/mL	77.35 ng/mL	278.6 ng/mL	hERG ([2]; hERG activity as % inhibition): 23.5%
Cc1cc(CNc2nc(nc(n2)C(Cl)(Cl)Cl)c3ccc(Cl)c(Cl)c3)n(C)n1 [Compound 708]					221 ng/mL	75.2 ng/mL	319.7 ng/mL	hERG ([2]; hERG activity as % inhibition): 12.2%
ClC(C1═NC(NCCO)═NC(C2═CC(C(F)(F)F)═CC═C2)═N1)(Cl)Cl [Compound 647]	0.039 µg/mL	100%	0.023 µg/mL	0.035 µg/mL				
ClC(Cl)(Cl)c1nc(nc(n1)c2ccccc2)N3CC4CC3CN4 [Compound 720]					89 ng/mL	35 ng/mL	56 ng/mL	hERG ([2]; hERG activity as % inhibition): 84%
NC1(CNC2═NC(═NC(═N2)C2═CC═C(C═C2)C(Cl)(Cl)Cl)C(Cl)(Cl)Cl)CCCCC1 [Compound 666]					5 ng/mL	2 ng/mL	3 ng/mL	In vivo Results Thompson Assay (n/N Cures or Suppressive) ([5]; (80 × 3): 80 mg/kg for 3 days): (80 × 3) 2/4 Cures
tert-butyl 5-(4-(4-chlorophenyl)-6-(trichloromethyl)-1,3,5-triazin-2-yl)-2,5-diazabicyclo[2.2.1]heptane-2-carboxylate [Example 6]					44 ng/mL	26 ng/mL	33 ng/mL	hERG [2, 6]: 96%
